{
  "source": "BindingDB's records for doi:10.1016/j.bmcl.2011.09.056",
  "about": "(Merck Research Laboratories, 2011)",
  "key": {"[1]": {"assay": "Displacement of [125I]CGRP form CGRP receptor in human SK-N-MC cell membrane by competitive binding assay in the absence of MgCl2"}, "[2]": {"assay": "Displacement of [125I]CGRP form CGRP receptor in human SK-N-MC cell membrane by competitive binding assay"}},
  "data": [
    {"smiles": "CC(C)C[C@H](NC(=O)CNC(=O)[C@H](C)NC(=O)[C@H](CC(C)C)NC(=O)[C@H](CCCN=C(N)N)NC(=O)[C@H](Cc1cnc[nH]1)NC(=O)[C@@H](NC(=O)[C@@H](NC(=O)[C@H](CS)NC(=O)[C@@H](NC(=O)[C@H](C)NC(=O)[C@@H](NC(=O)[C@H](CC(=O)O)NC(=O)[C@H](CS)NC(=O)[C@H](C)N)[C@@H](C)O)[C@@H](C)O)C(C)C)[C@@H](C)O)C(=O)N[C@@H](CC(C)C)C(=O)N[C@@H](CO)C(=O)N[C@@H](CCCN=C(N)N)C(=O)N[C@@H](CO)C(=O)NCC(=O)NCC(=O)N[C@H](C(=O)N[C@H](C(=O)N[C@@H](CCCCN)C(=O)N[C@@H](CC(N)=O)C(=O)N[C@@H](CC(N)=O)C(=O)N[C@@H](Cc1ccccc1)C(=O)N[C@H](C(=O)N1CCC[C@H]1C(=O)N[C@H](C(=O)N[C@@H](CC(N)=O)C(=O)N[C@H](C(=O)NCC(=O)N[C@@H](CO)C(=O)N[C@@H](CCCCN)C(=O)N[C@@H](C)C(=O)N[C@@H](Cc1ccccc1)C(N)=O)C(C)C)[C@@H](C)O)C(C)C)C(C)C)C(C)C", "values": [
      {"measurement": "Ki", "setting": "[1]", "value": 0.01, "unit": "nM"},
      {"measurement": "Ki", "setting": "[2]", "value": 0.01, "unit": "nM"}
    ]}
  ]
}
